Measurements reported in PubChem BioAssay (NCI).
“And” between values parts separate entries of the source, which are not always exact repeats. Identical values can stand only once.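 The compound was tested at five concentrations on cells cultured in 96-well plates, with a 48-hour exposure period. Abbreviation: GI50, concentration required for 50% inhibition of growth. TGI marks complete inhibition of growth.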

Legend:
Test in all cases: NCI tumour cell line growth inhibition, 48 h
UACC-62 melanoma = test system: UACC-62 melanoma
NCI-H522 lung = test system: NCI-H522 lung
OVCAR-4 ovarian = test system: OVCAR-4 ovarian
SK-MEL-28 melanoma = test system: SK-MEL-28 melanoma
SF-295 CNS = test system: SF-295 CNS
A549 NSCLC = test system: A549 NSCLC
UACC-257 melanoma = test system: UACC-257 melanoma
NCI-H460 lung = test system: NCI-H460 lung
786-0 renal = test system: 786-0 renal
MDA-MB-435 = test system: MDA-MB-435

SMILES | TGI (UACC-62 melanoma) | TGI (NCI-H522 lung) | TGI (OVCAR-4 ovarian) [µM] | TGI (SK-MEL-28 melanoma) | TGI (SF-295 CNS) | TGI (A549 NSCLC) | TGI (UACC-257 melanoma) | TGI (NCI-H460 lung) | TGI (786-0 renal) | GI50 (NCI-H522 lung) | TGI (MDA-MB-435) [µM]
C[N+](C)([O-])CCOc1cc2c(c3ccccc13)-c1ccccc1C2=O | 30.2 µM | 26.5 µM | 42.9 | 39.1 µM | > 72.1 µM | 54.6 µM | 16.9 µM | 43.2 µM |  |  | 
O=P(O)(O)C(N=C(Nc1ccccc1)Nc1ccccc1)P(=O)(O)O | > 100 µM | > 100 µM |  |  | > 100 µM | > 100 µM | > 100 µM | > 100 µM | > 100 µM |  | 
CCOC(=O)N1CCC(N[C@@H]2c3cc4c(cc3C(c3cc(OC)c(O)c(OC)c3)C3C(=O)OC[C@@H]32)OCO4)CC1 (stereo partly drawn) | 2.87 µM and 5.37 µM | 7.72 µM and 7.21 µM |  | 27.1 µM and 16.4 µM | 2.53 µM and 2.42 µM | 1.44 µM and 5.01 µM | 36.3 µM and > 25 µM | 0.887 µM and 2.88 µM | 2.94 µM and 4.8 µM | 1.41 µM and 3.08 µM | 
O=C1C=C/C(=N\N=C(c2ccccc2)c2ccccc2)O1 | > 10 µM |  | > 10 | > 10 µM | > 10 µM | > 10 µM | > 10 µM |  | > 10 µM |  | > 10
CCCCCCCCCCCC[S+](C)C | 21.9 µM | 15.6 µM | 18.8 | 25.3 µM | 16.6 µM | 26.1 µM | 17.4 µM | 33.2 µM | 13.3 µM |  | 
Cc1ccc(/C=N\NC2c3cc(Cl)ccc3Nc3nc(=O)[nH]c(C)c32)cc1 (stereo not drawn) | > 100 µM | > 100 µM |  | > 100 µM | > 100 µM | > 100 µM | > 100 µM | > 100 µM | > 100 µM |  | 
CNc1cc2c(c3ccccc13)C(CCl)CN2C(=O)c1cc2cc(OC)c(OC)c(OC)c2[nH]1 (stereo not drawn) | 0.00209 µM |  |  | 0.0351 µM |  | > 100 µM |  | 0.00226 µM | 0.00346 µM |  | 0.0131
CCOc1cc(/C=C2/C(C)=NN(c3cccc(Cl)c3)/C2=N/c2nc3ccccc3s2)ccc1O |  | 52.7 µM |  | > 100 µM | 93.8 µM |  | 61.6 µM | 64 µM | > 100 µM |  | 
On1c(-c2ccccc2)c(-c2ccccc2N2CCCC2)c2ccccc21 | > 100 µM | > 100 µM | > 100 | > 100 µM | > 100 µM | > 100 µM | > 100 µM | > 100 µM | > 100 µM |  | 
COc1cc(OC)c2c(=O)cc(-c3ccc(OC)c(OC)c3OC)oc2c1 | > 100 µM | > 100 µM | > 100 | > 100 µM | > 100 µM | > 100 µM | > 100 µM |  | > 100 µM |  | 
